According to US20260158025A1, “COMPOUNDS AND COMBINATIONS THEREOF FOR TREATING NEUROLOGICAL AND PSYCHIATRIC CONDITIONS” (priority 2024, published 2026):
Entries after “also recorded” stand apart in the source; their conditions may differ. Counter-ions that a name gives are not always drawn.

Experiments:
[1] = Pharmacokinetics of the subject combination in moderate renal impairment
Description: (§1) Data are GMRs and 90% CIs. References used are the matched healthy subjects for renal and hepatic impairment studies, and extensive or ultra-extensive CYP2D6 metabolizers respectively.

[2] = Co-administration of the subject combination with paroxetine / strong CYP2D6 inhibitor; conditions: subject combination plus strong CYP2D6 inhibitor
Description: In some embodiments, the patients are monitored for adverse reactions potentially attributable to dextromethorphan, such as somnolence and dizziness.

[3] = Steady state pharmacokinetics after administration of the subject combination; conditions: for Cmax relative to the peak level of bupropion: after administration of the subject combination
[4] = Effect of food on pharmacokinetics of the subject combination; assay type: in vivo, human; conditions: subject combination administered with food
[5] = Pharmacokinetics of the subject combination in CYP2D6 poor metabolizers; conditions: steady state, hydrobromide monohydrate
Description: Approximately 7% to 10% of Caucasians and 3% to 8% of African Americans lack the capacity to metabolize CYP2D6 substrates and are classified as poor metabolizers.
as §1

[6] = clinical trials; cited from earlier work
[7] = clinical trials; cited from earlier work; remark: listed apart in the source

With `CC(NC(C)(C)C)C(=O)c1cccc(Cl)c1.Cl` (racemic) [bupropion, (±)-1-(3-chlorophenyl)-2-[(1,1-dimethylethyl)amino]-1-propanone hydrochloride] the “increase in exposure vs matched controls with normal renal function” value ([1]; human, in vivo) was “approximately 2 fold” and the “reduction in clearance vs matched controls with normal renal function” value ([1]; human, in vivo) was 50%.

In the case of `COc1ccc2c(c1)[C@]13CCCC[C@@H]1[C@H](C2)N(C)CC3` [dextromethorphan, morphinan, 3-methoxy-17-methyl-, (9α, 13α, 14α), hydrobromide monohydrate], the “plasma concentrations on concomitant use with a strong CYP2D6 inhibitor” value [2] is reported as “increases plasma concentrations”, the “increase in mean elimination half-life compared to dextromethorphan given without bupropion” value ([3]; 8 days of the subject combination, extensive metabolizers) is reported as “approximately 3 fold” and the “pharmacokinetics at steady state (dose proportionality)” value ([3]; co-administered with bupropion, dextromethorphan 30 to 60 mg, bupropion 75 to 150 mg) is reported as “nonlinear pharmacokinetics”. The “change of Cmax with food” value [4] was “unchanged”, the “plasma concentrations in poor metabolizers compared with non-poor metabolizers” value [5] was “increases plasma concentrations; also recorded: generally higher” and the “reduction in clearance vs matched controls with normal renal function” value ([1]; moderate renal impairment (GFR 30-60 mL/min)) was 50%. The “increase in exposure vs matched controls with normal renal function” value ([1]; moderate renal impairment (GFR 30-60 mL/min), 7 subjects vs 6 controls) was “approximately 2 fold”.

In the case of `CC(NC(C)(C)C)C(O)c1cccc(Cl)c1` (stereo not drawn) [erythrohydroxybupropion], the “Cmax relative to the peak level of bupropion” value [3] is reported as “approximately equal to”.

For `CN[C@]1(c2ccccc2Cl)CCCCC1=O` [esketamine, Esketamine], the “patients who developed sedation based on MOAA/S” value [6] is given as 48% to 61, the “patients who experienced loss of consciousness (MOAA/S score of 0)” value [6] is given as 0.3% to 0.4 and the “patients who developed dissociative or perceptual changes based on CADSS” value [7] is given as 61% to 84.

For `C[C@H]1NC(C)(C)CO[C@]1(O)c1cccc(Cl)c1` [hydroxybupropion], the “Cmax relative to the peak level of bupropion” value [3] was “approximately 14 times”.

In the case of `C[C@H](NC(C)(C)C)[C@@H](O)c1cccc(Cl)c1` [threohydroxybupropion], the “Cmax relative to the peak level of bupropion” value [3] is reported as “about 5 times”.
